Earlier results, collected in patent publication US9827315B2, “Compositions of pharmaceutical actives containing diethylene glycol monoethyl ether or other alkyl derivatives” (THEMIS MEDICARE LIMITED, priority 2013, dated 2017).
Values after ≈ are worked out from the molar mass of the structure shown. Counter-ions that a name gives are not always drawn. Like-named read-outs stand apart in the source and are kept apart here.

Conditions: cited from earlier work

Compound | Solubility in water (descriptive) | further results
CC[C@H]1OC(=O)[C@H](C)[C@@H](O[C@H]2C[C@@](C)(OC)[C@@H](O)[C@H](C)O2)[C@H](C)[C@@H](O[C@@H]2O[C@H](C)C[C@H](N(C)C)[C@H]2O)[C@](C)(O)C[C@@H](C)/C(=N\OCOCCOC)[C@H](C)[C@@H](O)[C@]1(C)O [Roxithromycin, (3R,4S,5S,6R,7R,9R,11S,12R,13S,14R)-6-[(2S,3R,4S,6R)-4-d-3-hydroxy-6-methyloxan-2-yl]oxy-14-ethyl-7,12,13-trihydroxy-4-[(2R,4R,5S,6S)-5-hydroxy-4-methoxy-4,6-dimethyloxan-2-yl]oxy-10-(2-methoxyethoxymethoxyimino)-3,5,7,9,11,13-hexamethyl-1-oxacyclotetradecan-2-one] | almost insoluble | water solubility (dissolved in 30 ml water): 0.1 g
CCOC(=O)C1=C(COCCN)NC(C)=C(C(=O)OC)C1c1ccccc1Cl (racemic) [Amlodipine besylate, 3-Ethyl-5-methyl(±)-2-[(2-aminoethoxy)methyl]4-(2-chlorophenyl)-1,4-dihydro-6-methyl-3,5-pyridinedicarboxylate, mono benzene sulphonate] | slightly soluble | –
C[C@]12Cc3c[nH]nc3C[C@@H]1CC[C@@H]1[C@@H]2CC[C@@]2(C)[C@H]1CC[C@]2(C)O [Stanozolol] | practically insoluble | –
CCCC(=O)O[C@]1(C(=O)COC(C)=O)CC[C@H]2[C@@H]3C[C@H](F)C4=CC(=O)C=C[C@]4(C)[C@@]3(F)[C@@H](O)C[C@@]21C [Difluprednate] | Very low solubility in water | –
CC(=O)S[C@@H]1CC2=CC(=O)CC[C@]2(C)[C@H]2CC[C@@]3(C)[C@@H](CC[C@@]34CCC(=O)O4)[C@H]12 [Spironolactone, 17-hydroxy-7α-mercapto-3-oxo-17α-pregn-4-ene-21-carboxylic acid, γ-lactone acetate] | – | solubility in water (at 25° C.): about 22 mg/L
CCC(=O)O[C@]1(C(=O)SCF)[C@H](C)C[C@H]2[C@@H]3C[C@H](F)C4=CC(=O)C=C[C@]4(C)[C@@]3(F)[C@@H](O)C[C@@]21C [Fluticasone Propionate] | It is practically insoluble in water, freely soluble in dimethyl sulfoxide and dimethylformamide, and slightly soluble in methanol and 95% ethanol. Solubility in Diethylene glycol monoethyl ether is 14.7 mg/ml. | –
O=C1[C@H](CC[C@H](O)c2ccc(F)cc2)[C@@H](c2ccc(O)cc2)N1c1ccc(F)cc1 [Ezetimibe] | Freely to very soluble in ethanol, methanol, and acetone and practically insoluble in water. | –
CC1(C)O[C@@H]2C[C@H]3[C@@H]4CCC5=CC(=O)C=C[C@]5(C)[C@@]4(F)[C@@H](O)C[C@]3(C)[C@]2(C(=O)CO)O1 [Triamcinolone Acetonide, 9-Fluoro-11β,16α,17,21-tetrahydroxypregna-1,4-diene-3,20-dione cyclic 16,17acetal with acetone] | practically insoluble | –
Brc1c(NC2=NCCN2)ccc2nccnc12 [Brimonidine tartarate] | – | solubility in water (at pH 6.5): 34 mg/mL (≈ 116 mM)
COC(=O)C1=C(C)NC(C)=C(C(=O)O[C@@H]2CCCN(Cc3ccccc3)C2)C1c1cccc([N+](=O)[O-])c1 (stereo partly drawn) [Benidipine Hydrochloride, O5-methyl O3-[(3R)-1-(phenylmethyl)piperidin-3-yl]2,6-dimethyl-4-(3-nitrophenyl)-1,4-dihydropyridine-3,5-dicarboxylate] | practically insoluble | –
CN1CC(=O)N2[C@H](c3ccc4c(c3)OCO4)c3[nH]c4ccccc4c3C[C@@H]2C1=O [Tadalafil] | Insoluble in water and very slightly soluble in ethanol | –
COc1ccccc1OCC(O)COC(N)=O (stereo not drawn) [Methocarbamol, 3-(2-methoxyphenoxy)-1,2-propanediol 1-carbamate] | sparingly soluble | –
CC1=C(/C=C/C(C)=C/C=C/C(C)=C/C(=O)O)C(C)(C)CCC1 [Tretinoin] | Insoluble in water | –
CCCCCCCC/C=C\CCCCCCCC(=O)OCC [Ethyl oleate] | – | viscosity of vehicle (at 25° C.): 3.9 Cps
